# Measured values: patent US20030176431A1 (priority 1997, published 2003)
# pIC50: −log10 of the molar value. Read-outs that look alike come from different tables or passages of the source.
# Key:
# BVDV (strain NADL) = assay: Cell culture assay for inhibition of BVDV replication (cytopathic effect, crystal violet); format: cell-based, bovine viral diarrhea virus
# From the text: The replication of many viruses may be quantitatively assessed in the laboratory in various cell or tissue culture systems. Such in vitro culture methodologies are available and useable by those trained in the art for the propagation and quantitative measurement of the replication of several pestiviruses and flaviviruses. The following procedure was used for the in vitro quantitative measure of BVDV replication.
# Using the procedure described in this example, compounds of the invention were evaluated for their ability to inhibit the replication of the virus in cell culture. By adding compounds at various concentrations to the culture medium, a dose response effect of the compound on virus replication can be determined. A useful quantitative measure of the inhibition of BVDV replication in this assay is the concentration of the compound at which virus replication in cell culture is inhibited by 50% in comparison to that observed in the absence of the compound (50% Inhibitory Concentration, IC50).
# Anti-pestivirus compounds of the invention were screened for antiviral activity against BVDV on Madin Darby bovine kidney (MDBK) cells in a cell culture assay. Standard 96-well culture plates were seeded with 1 to 2×10^4 MDBK cells in 200 uL of Dulbeccos-modified Eagle's medium (DMEM) supplemented with 5% horse serum so as to obtain a monolayer of cells at 60% confluence. Six hours later, the medium was removed and the cell monolayers in each well were infected with 150 uL solution of BVDV (strain NADL) (M. S. Collett et al., Virology 165:191-199 (1988)) in DMEM supplemented with 2% horse serum previously titrated to yield 85-100% destruction (cytopathic effect) of the cell monolayer 36-40 hours after infection.
# To determine the IC50 values of compounds tested in this experiment, ten serial 2-fold dilutions of test compounds were prepared in DMSO solvent at a compound concentration 200 times that desired for the highest final test concentration. The test compound-DMSO solutions were diluted 50-fold into DMEM containing 2% horse serum. Fifty uL of this dilution was added to the 150 uL volume present in the wells of the virus-infected plate, yielding a final DMSO concentration in each well of 0.5%. Virus control (VC; no test compound) and cell culture control (CC; no virus and no test compound) wells were included on each 96-well plate. Assay points were conducted in replicate, usually in quadruplicate. Plates were then incubated at 37° C. in a humidified atmosphere containing 2.5% carbon dioxide for 36-40 hours. At the end of the incubation period, 100 uL of a 5% solution of glutaraldehyde in water was added to each well and the wells were incubated at room temperature for 1 hour. The fixative was removed, and the cells were stained with a 0.1% solution of crystal violet in water for 15-30 minutes. After rinsing and drying the plates, the optical density of the wells was measured at 570 nm (OD570).
# To determine IC50 values for the test compounds, the mean value of the OD570 readings of the virus control wells (VC) on a plate was subtracted from the OD570 readings of all wells on that plate. The IC50 values were then calculated according to the following formula: [formula]
# where Y represents the mean OD570 reading of the cell control wells (CC) divided by 2; B represents the mean OD570 reading of wells of the compound dilution nearest to and below Y; A represents the mean OD570 reading of wells of the compound dilution nearest to and above Y; L represents the compound concentration at B; and H represents the compound concentration at A.
# [1] = system: Respiratory syncytial virus; assay: microbe, parasite or virus in culture; format: cell-based; settings: read-out: IC50 Respiratory syncytial virus
# [2] = mouse, in vivo, po
# Influenza A virus = assay: microbe, parasite or virus in culture; format: cell-based; settings: read-out: IC50 Influenza A virus
# [3] = Animal safety study: maximum tolerated dose after single oral dose; settings: female, Swiss Webster, mouse, in vivo, po
# Description: (§1) Doses above this level are overtly toxic or fatal to the animal.
# (§2) To assess the safety of compounds of the invention, the methyl cellulose formulations of compounds of the invention were administered to laboratory mice. A single dose of each compound in a 0.5 mL volume was administered by oral gavage to groups of test animals, each consisting of five female Swiss Webster mice 8 to 9 weeks of age and weighing 25 to 30 g. The MTD was determined by administering increasing doses of compound and assessing animal survival over a 7 day period.
# [4] = system: female Swiss Webster mice; assay: as above; settings: mice; for MTD: single oral dose, survival over 7 days
# Description: as §1, §2
# Coxsackie B3 virus = assay: microbe, parasite or virus in culture; format: cell-based
# normal cells = settings: highest concentration giving optical density ≧75% of control, MTT, 68 hours
# Description: This assay measures cell viability, and therefore cytotoxicity, by quantitatively detecting the in situ reduction of 3-(4,5-dimethylthiazol-2-yl)-2,5-diphenyltetrazolium bromide (MTT) by viable cells. Cells are seeded in 96-well plates in DMEM containing 2% horse serum at a density of 4×10^3 cells per well. After incubation for 4 hours at 37° C. and 5% CO2, 2-fold serial dilutions of compound in 1% DMSO (or solvent alone) are added to quadruplicate wells and the plates are incubated for an additional 68 hours at 37° C. and 5% CO2, which is equivalent to 3 to 4 cell doublings. The culture medium is removed, and the cells are treated with 1 mg/ml of MTT in phosphate-buffered saline, pH 7.2 for 4 hours at 37° C. and 5% CO2. After removal of the unreduced MTT, the reduced blue formazan crystals produced by the viable cells are solubilized by the addition of 0.04N HCl in isopropanol. The absorbance at 570 nm (A570) of each well is read using a suitable microplate reader. Cell viability is expressed as the percentage of optical density for compound-treated cells relative to the optical density of solvent alone-treated control wells. The highest compound concentration resulting in an optical density of ≧75% of the control is represented as the cellular cytotoxicity value (CC75).
# [5] = system: Herpes simplex virus type 2; assay: microbe, parasite or virus in culture; format: cell-based
# BVDV-infected MDBK cells = format: cell-based, bovine viral diarrhea virus; settings: read-out: IC50 evaluated with the spiked mouse reference serum
# [6] = system: female Swiss Webster mice; settings: mouse, in vivo, po
# Description: as §1, §2
# [7] = Bovine viral diarrhea virus isolates and strains, BVDV strain NADL on MDBK cells, 36-40 hours, read-out: IC50
# [8] = human respiratory syncytial virus
# [9] = single oral gavage dose 21 mg/kg
# [10] = single oral gavage dose 71 mg/kg
# [11] = single oral gavage dose 710 mg/kg
# [12] = Enterovirus B, B3, read-out: IC50 Coxsackie B3 virus
# [13] = Human alphaherpesvirus 2, read-out: IC50 Herpes simplex virus type 2
# [14] = Bovine viral diarrhea virus isolates and strains, BVDV, read-out: IC50 determined in cell culture
# [15] = Bovine viral diarrhea virus isolates and strains, Table 3 specificity panel, BVDV, read-out: IC50 BVDV
# [16] = Bovine viral diarrhea virus isolates and strains, antiviral IC50 against BVDV, Table 4, read-out: IC50
# [17] = single oral gavage dose 214 mg/kg
structure (smiles),measurement,setting,value
CN(C)CCSc1nnc2c(n1)[nH]c1ccccc12 [Example 5],pIC50,BVDV (strain NADL); [7],5.26
CCN(CC)CC(C)Sc1nnc2c(n1)[nH]c1ccccc12 (stereo not shown) [Example 2],pIC50,BVDV (strain NADL); [7],6.52
Brc1ccc2[nH]c3nc(SCCN4CCCCCC4)nnc3c2c1 [Example 22],pIC50,BVDV (strain NADL); [7],7.38
c1ccc2c(c1)[nH]c1nc(SCCN3CCCCCC3)nnc12 [Example 9],pIC50,[1]; [8],< 4.30
same,Concentration Of Drug Measured In Serum Post Drug Administration 30 Min.,"[2]; Swiss Webster, 21 mg/kg",0.7 µM
same,Concentration Of Drug Measured In Serum Post Drug Administration 90 Min.,"[2]; Swiss Webster, 21 mg/kg",<0.2 µM
same,Concentration Of Drug Measured In Serum Post Drug Administration 30 Min.,"[2]; Swiss Webster, 214 mg/kg",19.6 µM
same,Concentration Of Drug Measured In Serum Post Drug Administration 90 Min.,"[2]; Swiss Webster, 214 mg/kg",8.5 µM
same,pIC50,Influenza A virus; Influenza A virus,< 4.30
same,MTD at 7 day,[3],214 mg/kg
same,#Survivors (alive at Day 7),[4]; [9],5/5
same,#Survivors (alive at Day 7),[4]; [10],5/5
same,#Survivors (alive at Day 7),[4]; [11],0/5
same,pIC50,Coxsackie B3 virus; [12],< 4.30
same,CC75,normal cells,25 µM
same,pIC50,[5]; [13],< 4.30
same,pIC50,BVDV (strain NADL); [7],7.52
same,pIC50,BVDV (strain NADL); [14],7.52
same,pIC50,BVDV (strain NADL); [15],7.52
same,pIC50,BVDV (strain NADL); [16],7.52
COc1cc2oc(=O)cc(CSc3nnc4c(n3)[nH]c3ccccc34)c2cc1OC [Example 13],pIC50,BVDV (strain NADL); [7],5.77
c1ccc2c(c1)[nH]c1nc(SCCN3CCCCC3)nnc12 [Example 7],pIC50,[1]; [8],< 4.30
same,Concentration Of Drug Measured In Serum Post Drug Administration 30 Min.,"[2]; Swiss Webster, 21 mg/kg",<1.5 µM
same,Concentration Of Drug Measured In Serum Post Drug Administration 90 Min.,"[2]; Swiss Webster, 21 mg/kg",<1.5 µM
same,Concentration Of Drug Measured In Serum Post Drug Administration 30 Min.,"[2]; Swiss Webster, 214 mg/kg",46.0 µM
same,Concentration Of Drug Measured In Serum Post Drug Administration 90 Min.,"[2]; Swiss Webster, 214 mg/kg",36.2 µM
same,pIC50,Influenza A virus; Influenza A virus,< 4.30
same,MTD at 7 day,[3],≥ 710 mg/kg
same,MTD,[4],greater than or equal to the highest dose tested
same,#Survivors (alive at Day 7),[4]; [9],5/5
same,#Survivors (alive at Day 7),[4]; [10],5/5
same,#Survivors (alive at Day 7),[4]; [17],5/5
same,#Survivors (alive at Day 7),[4]; [11],5/5
same,pIC50,Coxsackie B3 virus; [12],< 4.30
same,CC75,normal cells,12.5 µM
same,pIC50,[5]; [13],< 4.30
same,pIC50,BVDV (strain NADL); [7],7.22
same,pIC50,BVDV (strain NADL); [14],7.22
same,pIC50,BVDV (strain NADL); [15],7.22
same,pIC50,BVDV (strain NADL); [16],7.22
CCCCN(CCCC)CCSc1nnc2c(n1)[nH]c1ccccc12 [Example 12],pIC50,BVDV (strain NADL); [7],8.00
CCCN(CCC)CCSc1nnc2c(n1)[nH]c1ccc(N)cc12 [Example 26],pIC50,BVDV (strain NADL); [7],8.00
c1ccc2c(c1)[nH]c1nc(SCc3ccncc3)nnc12 [Example 10],pIC50,BVDV (strain NADL); [7],5.40
Cc1ccc2[nH]c3nc(SCCN4CCCCCC4)nnc3c2c1 [Example 20],pIC50,BVDV (strain NADL); [7],8.15
Clc1cc(CSc2nnc3c(n2)[nH]c2ccccc23)cc(Cl)n1 [Example 17],pIC50,BVDV (strain NADL); [7],5.85
c1ccc2c(c1)[nH]c1nc(SCCCCOC3CCCCO3)nnc12 (stereo not shown) [Example 18],pIC50,BVDV (strain NADL); [7],< 5.52
Cc1ccc2[nH]c3nc(SCCN4CCCCC4)nnc3c2c1 [Example 24],pIC50,BVDV (strain NADL); [7],7.89
Brc1ccc2[nH]c3nc(SCCN4CCCCC4)nnc3c2c1 [Example 21],pIC50,BVDV (strain NADL); [7],7.44
c1ccc2c(c1)OCC(CSc1nnc3c(n1)[nH]c1ccccc13)O2 (stereo not shown) [Example 16],pIC50,BVDV (strain NADL); [7],5.60
"CCCN(CCC)CCSc1nnc2c(n1)[nH]c1ccccc12 [Example 1, 3-[((2-dipropylamino)ethyl)thio]-5H-1,2,4-triazino[5,6-b]indole]",pIC50,BVDV-infected MDBK cells,8.46
same,MTD,[6],greater than or equal to the highest dose tested
same,pIC50,[1],< 4.30
same,Concentration Of Drug Measured In Serum Post Drug Administration 30 Min.,[2]; 21 mg/kg,0.1 µM
same,Concentration Of Drug Measured In Serum Post Drug Administration 90 Min.,[2]; 21 mg/kg,0.07 µM
same,Concentration Of Drug Measured In Serum Post Drug Administration 30 Min.,[2]; 214 mg/kg,1.1 µM
same,Concentration Of Drug Measured In Serum Post Drug Administration 90 Min.,[2]; 214 mg/kg,0.6 µM
same,pIC50,Influenza A virus,< 4.30
same,MTD,[4],≧710 mg/kg
same,#Survivors (alive at Day 7),[4]; [9],5/5
same,#Survivors (alive at Day 7),[4]; [10],5/5
same,#Survivors (alive at Day 7),[4]; [17],5/5
same,#Survivors (alive at Day 7),[4]; [11],5/5
same,pIC50,Coxsackie B3 virus; read-out: IC50 Coxsackie B3 virus,< 4.30
same,CC75,normal cells,2 µM
same,pIC50,[5]; read-out: IC50 Herpes simplex virus type 2,< 4.30
same,pIC50,BVDV (strain NADL); read-out: IC50,8.22
same,pIC50,BVDV (strain NADL); read-out: IC50 BVDV,8.22
same,pIC50,BVDV (strain NADL); read-out: IC50 determined in cell culture,8.22
c1ccc2c(c1)[nH]c1nc(SCCN3CCOCC3)nnc12 [Example 11],pIC50,BVDV (strain NADL); [7],5.92
CC(C)N(CCSc1nnc2c(n1)[nH]c1ccccc12)C(C)C [Example 3],pIC50,BVDV (strain NADL); [7],5.51
CC(CN(C)C)Sc1nnc2c(n1)[nH]c1ccccc12 (stereo not shown) [Example 4],pIC50,BVDV (strain NADL); [7],5.43
Fc1ccc2[nH]c3nc(SCCN4CCCCCC4)nnc3c2c1 [Example 23],pIC50,BVDV (strain NADL); [7],7.85
c1ccc2c(c1)[nH]c1nc(SCCN3CCCC3)nnc12 [Example 6],pIC50,BVDV (strain NADL); [7],6.30
c1ccc2c(c1)[nH]c1nc(SCCCN3CCCCC3)nnc12 [Example 8],pIC50,BVDV (strain NADL); [7],5.36
CCCN(CCC)CCSc1nnc2c(n1)[nH]c1ccccc12 [Example 19],pIC50,BVDV (strain NADL); [7],8.70
Fc1ccc2[nH]c3nc(SCCN4CCCCC4)nnc3c2c1 [Example 27],pIC50,BVDV (strain NADL); [7],7.68
COc1ccc2[nH]c3nc(SCCN4CCOCC4)nnc3c2c1 [Example 25],pIC50,BVDV (strain NADL); [7],5.70
N#CC1CCN(CCSc2nnc3c(n2)[nH]c2ccccc23)CC1 [Example 14],pIC50,BVDV (strain NADL); [7],5.74
CCC1CCN(CCSc2nnc3c(n2)[nH]c2ccccc23)CC1 [Example 15],pIC50,BVDV (strain NADL); [7],< 5.52
